In patent US10369159B2, “Estrogen receptor β partial agonist having estrogen receptor α inhibitory effect, and gynecological disease therapeutic agent using same” (NOBELPHARMA CO., LTD., priority 2015, dated 2019):

Tested on: rat endometriosis model
Assay: Wet weight of each organ (pituitary, adrenal glands, left uterine horn, femur) in the rat endometriosis model
Format: in vivo
Settings: for Wet weight of pituitary: vehicle 0.0271 g; for Wet weight of adrenal gland (right): vehicle 0.0425 g; for Wet weight of adrenal gland (left): vehicle 0.0468 g; for Wet weight of adrenal glands (the sum of the left and right): vehicle 0.0893 g; for Wet weight of left uterine horn: vehicle 0.1428 g; for Wet weight of femur (left): vehicle 0.7589 g
Method: On the previous day of the model preparation (the grouping date), under inhalation anesthesia of 2% isoflurane, an incision was made in the abdomen of the rats. Subsequently, about 5 mL of blood was collected with a syringe from the abdominal vena cava and collected in a Venoject II vacuum blood collection tube (EDTA-2K), then cut the abdominal vena cava and abdominal aorta to euthanize by exsanguination. The right uterine horn was excised and cut out two strips (approximately 5 mm×5 mm), then cut out strips (approximately 5 mm×5 mm) from the graft sites, the right and left abdominal walls (muscle layer and peritoneum). After that, wet weight of each strip and abdominal wall was measured. Then pituitary, adrenal glands (both sides), left uterine horn, mammary gland (excised with the nipples, three on the lower abdomen, a sample for RNA measurement was approximately 3 mm in diameter) and femur (left side) were excised.
As for the pituitary, adrenal glands (both sides), left uterine horn and femur, wet weight was measured. The femur bone after wet weight measurement was discarded.
The administration was made orally, and the drug was forcibly administered into a stomach once a day using a flexible oral sonde and syringe for 28 consecutive days.
On the next day of the final administration, the abdominal dissection was made under inhalation anesthesia of 2% isoflurane, and the grafted uterine strips (two pieces) were excised, and photographed with a digital camera. Subsequently, about 5 mL of blood was collected with a syringe from the abdominal vena cava and collected in a Venoject II vacuum blood collection tube (EDTA-2K), then cut the abdominal vena cava and abdominal aorta to euthanize by exsanguination. Then pituitary, adrenal glands (both sides), graft uterine strips (two pieces), left uterine horn, mammary gland (excised with the nipples, three on the lower abdomen, a sample for RNA measurement was approximately 3 mm in diameter) and femur (left side) were excised.
As for the pituitary, adrenal glands (both sides), grafted uterine strip (one piece), left uterine horn and femur, wet weight was measured. The femur bone after wet weight measurement was discarded.

With `CCN(CC)Cc1ccc(OCC[C@H]2CC[C@H]3[C@@H]4[C@H](C)Cc5cc(O)ccc5[C@H]4CC[C@]23C)c(OC)c1` [SR16234, (7α)-21-[4-[(diethylamino)methyl]-2-methoxyphenoxy]-7-methyl-19-norpregna-1,3,5(10)-triene-3-ol] the “Wet weight of pituitary” value (0.1 mg/kg p.o. 28 days) was 0.0226 g, the “Wet weight of adrenal gland (right)” value (0.1 mg/kg p.o. 28 days) was 0.0400 g and the “Wet weight of adrenal gland (left)” value (0.1 mg/kg p.o. 28 days) was 0.0438 g. The “Wet weight of adrenal glands (the sum of the left and right)” value (from here on “Wet weight of adrenal glands”) (0.1 mg/kg p.o. 28 days) was 0.0838 g, the “Wet weight of left uterine horn” value (0.1 mg/kg p.o. 28 days) was 0.1261 g and the “Wet weight of femur (left)” value (0.1 mg/kg p.o. 28 days) was 0.7597 g. For the same compound, the “Weight trend in comparison with the vehicle control group after the Day 14 (in words)” value (0.3 mg/kg and 0.1 mg/kg administered group) was “very mild weight suppression trend”, the “Wet weight of pituitary” value (0.3 mg/kg p.o. 28 days) was 0.0187 g and the “Wet weight of adrenal gland (right)” value (0.3 mg/kg p.o. 28 days) was 0.0381 g. The “Wet weight of adrenal gland (left)” value (0.3 mg/kg p.o. 28 days) was 0.0398 g, the “Wet weight of adrenal glands” value (0.3 mg/kg p.o. 28 days) was 0.0779 g and the “Wet weight of left uterine horn” value (0.3 mg/kg p.o. 28 days) was 0.1119 g. The “Wet weight of femur (left)” value (0.3 mg/kg p.o. 28 days) was 0.7598 g, the “Wet weight of pituitary” value (1.0 mg/kg p.o. 28 days) was 0.0174 g and the “Wet weight of adrenal gland (right)” value (1.0 mg/kg p.o. 28 days) was 0.0357 g. For the same compound, the “Wet weight of adrenal gland (left)” value (1.0 mg/kg p.o. 28 days) was 0.0375 g, the “Wet weight of adrenal glands” value (1.0 mg/kg p.o. 28 days) was 0.0732 g and the “Wet weight of left uterine horn” value (1.0 mg/kg p.o. 28 days) was 0.1016 g. The “Wet weight of femur (left)” value (1.0 mg/kg p.o. 28 days) was 0.7301 g and the “Wet weight of organs in comparison with the vehicle control group (in words)” value (SR16234 administered groups, 0.1, 0.3 and 1.0 mg/kg) was “decreasing trend associated with the dose increase”.
